The structures appear in SMILES notation.

The test addresses T1, Gag-Pol polyprotein [588-1027]/[588-1147] (Human immunodeficiency virus 1, UniProt P04585).
T1 construct: 588-1027; 588-1147
Put plainly: HIV-1 RT Assay. To be noted: pH 8.2; 37 °C. From the text:
The IC50 of reverse transcriptase is the concentration that inhibits 50% of recombinant HIV-1 RT RNA-directed DNA polymerase activity in vitro.

One may read the IC50 as the point on the concentration scale where inhibition reaches its midpoint. Take `O=C1Nc2ccc(Cl)cc2[C@@](C#CC2CC2)(C(F)(F)F)[C@H]1NCc1ccccc1` [(3R,4R)-3-(benzylamino)-6-chloro-4-(2-cyclopropylethynyl)-4-(trifluoromethyl)-1,2,3,4-tetrahydroquinolin-2-one]: the half-inhibitory concentration (IC50) was > 2000 nM.
Consider `CC(C)=CCO[C@H]1C(=O)Nc2ccc(Cl)cc2[C@@]1(C#CC1CC1)C(F)(F)F` [(3R,4R)-6-chloro-4-(2-cyclopropylethynyl)-3-[(3-methylbut-2-en-1-yl)oxy]-4-(trifluoromethyl)-1,2,3,4-tetrahydroquinolin-2-one], for which the IC50 is > 2000 nM.
`O=C1Nc2ccc(Cl)cc2[C@@](C#CC2CC2)(C(F)(F)F)[C@H]1O` [(3R,4R)-6-chloro-4-(2-cyclopropylethynyl)-3-hydroxy-4-(trifluoromethyl)-1,2,3,4-tetrahydroquinolin-2-one]: the IC50 is > 2000 nM.
With `CC(=O)N[C@H]1C(=O)Nc2ccc(Cl)cc2[C@@]1(C#CC1CC1)C(F)(F)F` [N-[(3R,4R)-6-chloro-4-(2-cyclopropylethynyl)-2-oxo-4-(trifluoromethyl)-1,2,3,4-tetrahydroquinolin-3-yl]acetamide], the IC50 is > 2000 nM.
Regarding `COC(=O)N[C@H]1C(=O)Nc2ccc(Cl)cc2[C@@]1(C#CC1CC1)C(F)(F)F` [methyl N-[(3R,4R)-6-chloro-4-(2-cyclopropylethynyl)-2-oxo-4-(trifluoromethyl)-1,2,3,4-tetrahydroquinolin-3-yl]carbamate], the IC50 is > 2000 nM.

(Values after BindingDB's records for doi:10.1016/s0960-894x(01)00331-6 (Dupont Pharmaceuticals, 2001).)
